{"source": "paper PMC7746546", "about": "“The JAK1 Selective Inhibitor ABT 317 Blocks Signaling Through Interferon-γ and Common γ Chain Cytokine Receptors to Reverse Autoimmune Diabetes in NOD Mice” (Frontiers in Immunology, 2020)", "key": {"[1]": {"system": "autoimmune insulitis in NOD mice", "parameters": "method as in PMID 28292965", "details": "cited from earlier work"}, "[2]": {"system": "IFN-γ mediated MHC class I upregulation on β cells", "parameters": "method as in PMID 28292965", "details": "cited from earlier work"}, "JAK1 over JAK2": {"system": "JAK1 over JAK2", "parameters": "method as in PMID 30806706, PMID 27390150", "details": "cited from earlier work"}, "JAK1 over JAK3": {"system": "JAK1 over JAK3", "parameters": "method as in PMID 30806706, PMID 27390150", "details": "cited from earlier work"}, "[3]": {"system": "JAK2-dependent cytokines IL-3 and GM-CSF", "details": "cited from earlier work"}, "[4]": {"details": "cited from earlier work"}, "[5]": {"system": "IL-21 signaling in T cells", "experiment": "IL-21-induced pSTAT3 in spleen T cells in vitro (flow cytometry)", "format": "cell-based, mouse", "details": "0.05, 0.2, 1 and 2 µM, CD8+ and CD4+ T cells, Fig S2K-L", "description": "[…] […] For use in vivo, 3 mg/kg or 10 mg/kg of drug was delivered twice daily by oral gavage in the vehicle 0.5% hydroxypropyl methylcellulose in sterile H2O. The JAK1/JAK2 inhibitor baricitinib was purchased from SelleckChem and used at a concentration of 3 mg/kg in vivo made up in a vehicle of 0.5% methyl cellulose.\nSingle-cell suspensions from the spleens were prepared by mechanical tissue disruption through a 70 μm cell strainer followed by red cell lysis. Cells were resuspended in FACS buffer (0.5% FCS in PBS) and filtered through a nylon mesh.\nWhole islets were treated with vehicle or ABT 317 for 1 h before culture with 10 ng/ml IFN-γ for 72 h, and analysis by flow cytometry. Splenocytes and whole blood were stimulated with 100 U/ml IL-2, 50 ng/ml IL-7, 30 ng/ml IL-15, 25 ng/ml IL-21, or 40 ng/ml GM-CSF for 30 min at 37°C. Red blood cells were lysed (155 mmol/L NH4Cl, 10 mmol/L Tris-HCl, pH 7.5). Leukocytes were analyzed by flow cytometry.\nMouse islet cells were stained with anti-CD45 and biotinylated anti-H2Kd (BD Pharmingen) followed by streptavidin-allophycocyanin (BioLegend). β‐cells were identified by autofluorescence ([23]). Dead cells were excluded using propidium iodide. […] Data were collected on the FACS Fortessa cell analyzer (BD Bioscience, San Jose, CA, USA) and were analyzed using FlowJo Software version 10 (TreeStar, Inc, Ashland, OR, USA)."}, "[6]": {"parameters": "method as in PMID 29481660", "details": "participants with diabetic kidney disease, phase 2 trial; cited from earlier work"}}, "data": [{"compound": "Cc1cc(Nc2nc(N[C@@H](C)c3ncc(F)cn3)ncc2Cl)n[nH]1", "note": "[AZD1480]", "values": [{"measurement": "established autoimmune insulitis", "setting": "[1]", "value": "reversed"}, {"measurement": "immune cell infiltration into pancreatic islets", "setting": "[1]", "value": "reduced"}, {"measurement": "IFN-γ mediated MHC class I upregulation on β cells", "setting": "[2]", "value": "blocked"}]}, {"compound": "CC[C@@H]1CN(C(=O)NCC(F)(F)F)C[C@@H]1c1cnc2cnc3[nH]ccc3n12", "note": "[upadacitinib]", "values": [{"measurement": "selectivity for JAK1 over JAK2", "setting": "JAK1 over JAK2", "value": 74, "unit": "fold"}, {"measurement": "selectivity for JAK1 over JAK3", "setting": "JAK1 over JAK3", "value": 58, "unit": "fold"}, {"measurement": "effect on JAK2-dependent cytokines IL-3 and GM-CSF", "setting": "[3]", "value": "inhibits"}]}, {"compound": "O=C(Nc1nc2cccc(-c3ccc(CN4CCS(=O)(=O)CC4)cc3)n2n1)C1CC1", "note": "[filgotinib]", "values": [{"measurement": "anemia", "setting": "[4]; rheumatoid arthritis patients", "value": "did not result in anemia"}]}, {"compound": "C[C@@H]1CCN(C(=O)CC#N)C[C@@H]1N(C)c1ncnc2[nH]ccc12", "note": "[tofacitinib]", "values": [{"measurement": "blocking IL-21 signaling through pSTAT3, dose dependence", "setting": "[5]", "value": "similar"}]}, {"compound": "CCS(=O)(=O)N1CC(CC#N)(n2cc(-c3ncnc4[nH]ccc34)cn2)C1", "note": "[baricitinib]", "values": [{"measurement": "neutropenia in clinical trials", "setting": "[4]", "value": "neutropenia has been found"}, {"measurement": "albuminuria", "setting": "[6]", "value": "reduction"}, {"measurement": "blocking IL-21 signaling through pSTAT3, dose dependence", "setting": "[5]", "value": "similar"}]}]}
